Experimental data taken from PubChem BioAssay AID256 (DTP/NCI, 2004).
Where “and” joins values, the source holds several entries; their conditions need not be identical. Equal entries are not always repeated. Toxic doses and inconclusive results are not listed. The calls were made as follows: active = survival T/C of 150% or more; inactive = T/C below 125% in these data.

Tested on: CD2F1 mice, L1210 leukemia ip, survival T/C
Experiment: NCI In Vivo Anticancer Drug Screen. Data for tumor model L1210 Leukemia (intraperitoneal) in CD2F1 (CDF1) mice
Settings: higher = longer survival
Summary of the method: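 Antitumor effect is scored in animals hosting a serially transplanted tumor. Values compare compound-dosed animals against vehicle-only controls as a simple quotient.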

[1] = endpoint: mean survival time, dose: 100.0 mg/kg/injection, schedule: Q01DX009 (ip), vehicle: saline
[2] = endpoint: mean survival time, dose: 100.0 mg/kg/injection, schedule: Q04DX003 (ip), vehicle: Klucel (hydroxypropylcellulose) (HPC)
[3] = endpoint: mean survival time, dose: 100.0 mg/kg/injection, schedule: Q04DX003 (ip), vehicle: saline with Tween-80
[4] = endpoint: mean survival time, dose: 200.0 mg/kg/injection, schedule: Q01DX009 (ip), vehicle: saline
[5] = endpoint: mean survival time, dose: 200.0 mg/kg/injection, schedule: Q04DX003 (ip), vehicle: Klucel (hydroxypropylcellulose) (HPC)
[6] = endpoint: mean survival time, dose: 200.0 mg/kg/injection, schedule: Q04DX003 (ip), vehicle: saline with Tween-80
[7] = endpoint: mean survival time, dose: 400.0 mg/kg/injection, schedule: Q04DX003 (ip), vehicle: Klucel (hydroxypropylcellulose) (HPC)
[8] = endpoint: mean survival time, dose: 400.0 mg/kg/injection, schedule: Q04DX003 (ip), vehicle: saline with Tween-80
[9] = endpoint: mean survival time, dose: 50.0 mg/kg/injection, schedule: Q01DX009 (ip), vehicle: saline with Tween-80
[10] = endpoint: mean survival time, dose: 100.0 mg/kg/injection, schedule: Q01DX009 (ip), vehicle: saline with Tween-80
[11] = endpoint: mean survival time, dose: 200.0 mg/kg/injection, schedule: Q01DX009 (ip), vehicle: saline with Tween-80
[12] = endpoint: mean survival time, dose: 400.0 mg/kg/injection, schedule: Q01DX009 (ip), vehicle: saline with Tween-80
[13] = endpoint: mean survival time, dose: 100.0 mg/kg/injection, schedule: Q01DX001 (ip), vehicle: saline with Tween-80
[14] = endpoint: mean survival time, dose: 200.0 mg/kg/injection, schedule: Q01DX001 (ip), vehicle: saline with Tween-80
[15] = endpoint: mean survival time, dose: 400.0 mg/kg/injection, schedule: Q01DX001 (ip), vehicle: saline with Tween-80
[16] = endpoint: mean survival time, dose: 6.25 mg/kg/injection, schedule: Q04DX003 (ip), vehicle: saline
[17] = endpoint: mean survival time, dose: 12.5 mg/kg/injection, schedule: Q04DX003 (ip), vehicle: saline

Measured: T/C

NC(CCC(=O)NC(CS)C(=O)NCC(=O)O)C(=O)O (stereo not given)
inactive: endpoint: median survival time, dose: 25.0 mg/kg/injection, schedule: Q01DX009 (ip), vehicle: saline 100 % of control | endpoint: median survival time, dose: 50.0 mg/kg/injection, schedule: Q01DX009 (ip), vehicle: saline 110 % of control | endpoint: median survival time, dose: 100.0 mg/kg/injection, schedule: Q01DX009 (ip), vehicle: saline 104 % of control | endpoint: median survival time, dose: 200.0 mg/kg/injection, schedule: Q01DX009 (ip), vehicle: saline 104 % of control | endpoint: median survival time, dose: 400.0 mg/kg/injection, schedule: Q01DX009 (ip), vehicle: saline 94 % of control

COCC/C(COC)=N\N=C(/CCOC)COC
inactive: [1] 102 % of control | [2] 102 % of control | [3] 101 % of control | [4] 108 % of control | [5] 102 % of control | [6] 101 % of control | [7] 114 % of control | [8] 106 % of control

O=C1CC(=O)NC(=S)N1
inactive: [1] 95 % of control | [4] 93 % of control

CC1(C)N=C(N)N=C(N)N1c1ccc(CCCCc2cccc(S(=O)(=O)F)c2)c(Cl)c1
inactive: endpoint: mean survival time, dose: 2.5 mg/kg/injection, schedule: Q01DX009 (ip), vehicle: saline with Tween-80 98 % of control | endpoint: mean survival time, dose: 5.0 mg/kg/injection, schedule: Q01DX009 (ip), vehicle: saline with Tween-80 104 % of control | endpoint: mean survival time, dose: 6.25 mg/kg/injection, schedule: Q04DX003 (ip), vehicle: saline sonified 89 % of control | endpoint: mean survival time, dose: 10.0 mg/kg/injection, schedule: Q01DX009 (ip), vehicle: saline with Tween-80 103 % of control | endpoint: mean survival time, dose: 12.5 mg/kg/injection, schedule: Q04DX003 (ip), vehicle: saline sonified 93 % of control | endpoint: mean survival time, dose: 20.0 mg/kg/injection, schedule: Q01DX009 (ip), vehicle: saline with Tween-80 112 % of control | endpoint: mean survival time, dose: 25.0 mg/kg/injection, schedule: Q04DX003 (ip), vehicle: saline sonified 96 % of control

CC#CC(C)=O
inactive: endpoint: mean survival time, dose: 25.0 mg/kg/injection, schedule: Q01DX009 (ip), vehicle: saline 93 % of control | endpoint: mean survival time, dose: 50.0 mg/kg/injection, schedule: Q01DX009 (ip), vehicle: saline 96 % of control | [1] 97 % of control

O=C1OCC/C1=C1/CCOC1
inactive: endpoint: mean survival time, dose: 25.0 mg/kg/injection, schedule: Q01DX009 (ip), vehicle: saline with Tween-80 101 % of control | [9] 101 % of control

CCCN(CCC)c1ccc(C#N)cc1
inactive: [2] 91 % of control | [5] 92 % of control | [7] 95 % of control

CC(C)C(Br)C(=O)NC(Cc1ccccc1)C(=O)O (stereo not given)
inactive: [3] 101 % of control | [6] 110 % of control | [8] 122 % of control

CCCCCC(C)(C#N)CCCCC
inactive: [10] 105 % of control | [11] 103 % of control

NC(=O)CSc1ccccc1
inactive: endpoint: mean survival time, dose: 100.0 mg/kg/injection, schedule: Q01DX001 (ip), vehicle: other 101 % of control | endpoint: mean survival time, dose: 200.0 mg/kg/injection, schedule: Q01DX001 (ip), vehicle: other 101 % of control | endpoint: mean survival time, dose: 400.0 mg/kg/injection, schedule: Q01DX001 (ip), vehicle: other 107 % of control

COc1ccc(CNCCO)cc1
inactive: [9] 96 % of control | [10] 102 % of control | [11] 98 % of control

CCOC(=O)C(=O)CC(=O)c1ccc(OC)cc1
inactive: [10] 98 % of control | [3] 100 % of control | [11] 96 % of control | [6] 95 % of control | [12] 101 % of control | [8] 95 % of control

CCOc1c(NCCO)c2cc(Cl)ccc2oc1=O
inactive: [13] 95 % of control | [14] 87 % of control | [15] 97 % of control

O=C(CCBr)NCc1ccccc1
inactive: [10] 97 % of control | [3] 92 % of control | [11] 98 % of control | [6] 98 % of control | [12] 97 % of control | [8] 95 % of control

COc1ccc2c(c1[N+](=O)[O-])CC[C@@H]1[C@@H]2CC[C@]2(C)C(=O)CC[C@@H]12
inactive: endpoint: median survival time, dose: 50.0 mg/kg/injection, schedule: Q01DX009 (ip), vehicle: saline with Tween-80 103 % of control | endpoint: median survival time, dose: 100.0 mg/kg/injection, schedule: Q01DX009 (ip), vehicle: saline with Tween-80 103 % of control | endpoint: median survival time, dose: 200.0 mg/kg/injection, schedule: Q01DX009 (ip), vehicle: saline with Tween-80 102 % of control | endpoint: median survival time, dose: 400.0 mg/kg/injection, schedule: Q01DX009 (ip), vehicle: saline with Tween-80 103 % of control | endpoint: median survival time, dose: 800.0 mg/kg/injection, schedule: Q01DX009 (ip), vehicle: saline with Tween-80 106 % of control

CC1=C(/C=C/C(C)=C/C=C/C(C)=C/C=O)C(C)(C)CCC1
inactive: endpoint: median survival time, dose: 6.25 mg/kg/injection, schedule: Q01DX005 (ip), vehicle: saline with Tween-80 105 % of control | endpoint: median survival time, dose: 12.5 mg/kg/injection, schedule: Q01DX005 (ip), vehicle: saline with Tween-80 100 % of control | endpoint: median survival time, dose: 25.0 mg/kg/injection, schedule: Q01DX005 (ip), vehicle: saline with Tween-80 97 % of control and 103 % of control | endpoint: median survival time, dose: 50.0 mg/kg/injection, schedule: Q01DX005 (ip), vehicle: saline with Tween-80 100 % of control and 101 % of control | endpoint: median survival time, dose: 100.0 mg/kg/injection, schedule: Q01DX005 (ip), vehicle: saline with Tween-80 104 % of control

CCOC(=O)c1ccc2c(c1)Cc1cc([N+](=O)[O-])ccc1-2
inactive: endpoint: mean survival time, dose: 100.0 mg/kg/injection, schedule: Q01DX001 (ip), vehicle: carboxymethylcellulose (CMC) 98 % of control | endpoint: mean survival time, dose: 200.0 mg/kg/injection, schedule: Q01DX001 (ip), vehicle: carboxymethylcellulose (CMC) 95 % of control | endpoint: mean survival time, dose: 400.0 mg/kg/injection, schedule: Q01DX001 (ip), vehicle: carboxymethylcellulose (CMC) 95 % of control

CCC(CC)C(O)CC(O)CC(C)C (stereo not given)
inactive: endpoint: mean survival time, dose: 25.0 mg/kg/injection, schedule: Q01DX009 (ip), vehicle: other 97 % of control | endpoint: mean survival time, dose: 50.0 mg/kg/injection, schedule: Q01DX009 (ip), vehicle: other 103 % of control | endpoint: mean survival time, dose: 100.0 mg/kg/injection, schedule: Q01DX009 (ip), vehicle: other 97 % of control | endpoint: mean survival time, dose: 100.0 mg/kg/injection, schedule: Q04DX003 (ip), vehicle: other 86 % of control | endpoint: mean survival time, dose: 400.0 mg/kg/injection, schedule: Q04DX003 (ip), vehicle: other 94 % of control

CC(O)C[As](=O)(O)c1ccccc1Cl (stereo not given)
inactive: [16] 107 % of control | [17] 107 % of control

Cc1ccnc(=S)[nH]1.[Pd]
inactive: endpoint: mean survival time, dose: 3.12 mg/kg/injection, schedule: Q04DX003 (ip), vehicle: saline 98 % of control | [16] 102 % of control | [17] 98 % of control | endpoint: mean survival time, dose: 25.0 mg/kg/injection, schedule: Q04DX003 (ip), vehicle: saline 98 % of control | endpoint: mean survival time, dose: 50.0 mg/kg/injection, schedule: Q04DX003 (ip), vehicle: saline 102 % of control | endpoint: mean survival time, dose: 100.0 mg/kg/injection, schedule: Q04DX003 (ip), vehicle: saline 102 % of control | endpoint: mean survival time, dose: 200.0 mg/kg/injection, schedule: Q04DX003 (ip), vehicle: saline 104 % of control

O=c1ccocc1O
inactive: endpoint: mean survival time, dose: 200.0 mg/kg/injection, schedule: Q04DX002 (ip), vehicle: saline 95 % of control | endpoint: mean survival time, dose: 400.0 mg/kg/injection, schedule: Q04DX002 (ip), vehicle: saline 92 % of control

COc1cc(/C=N/N2C(=O)CSC2=S)ccc1OCc1ccccc1
inactive: [13] 95 % of control | [14] 91 % of control | [15] 89 % of control

O=C1CSC(=S)N1/N=C/c1ccc(Cl)c(Cl)c1
inactive: endpoint: mean survival time, dose: 1.56 mg/kg/injection, schedule: Q01DX009 (ip), vehicle: saline with Tween-80 97 % of control | endpoint: mean survival time, dose: 3.13 mg/kg/injection, schedule: Q01DX009 (ip), vehicle: saline with Tween-80 100 % of control | endpoint: mean survival time, dose: 6.25 mg/kg/injection, schedule: Q01DX009 (ip), vehicle: saline with Tween-80 91 % of control | endpoint: mean survival time, dose: 6.25 mg/kg/injection, schedule: Q04DX003 (ip), vehicle: saline with Tween-80 100 % of control

[CH-]=C([CH2-])C.[Ni][Br].c1ccc([PH+](c2ccccc2)c2ccccc2)cc1
inactive: endpoint: mean survival time, dose: 25.0 mg/kg/injection, schedule: Q01DX001 (ip), vehicle: saline with Tween-80 101 % of control | endpoint: mean survival time, dose: 50.0 mg/kg/injection, schedule: Q01DX001 (ip), vehicle: saline with Tween-80 101 % of control | [13] 108 % of control
